Numbered stars: 1 amine (or outer) side, 2 acyl side, 3 side chain; on linkers, the order of the positions; unused ones are H or OH. Bridge positions count the residues as written; N and C are the ends. Square brackets hold non-standard residues; d marks the D form. Peptide text beside a SMILES is read from it. Phe(4-NH2) = Nc1ccc(C[C@H](N)C(=O)O)cc1; CH2 = C([*:1])[*:2]
Target: T1, Angiotensin II receptor (AT-1) type-1 (Rattus norvegicus, UniProt P29089+P25095)
T1 sequence (P29089 whole entry): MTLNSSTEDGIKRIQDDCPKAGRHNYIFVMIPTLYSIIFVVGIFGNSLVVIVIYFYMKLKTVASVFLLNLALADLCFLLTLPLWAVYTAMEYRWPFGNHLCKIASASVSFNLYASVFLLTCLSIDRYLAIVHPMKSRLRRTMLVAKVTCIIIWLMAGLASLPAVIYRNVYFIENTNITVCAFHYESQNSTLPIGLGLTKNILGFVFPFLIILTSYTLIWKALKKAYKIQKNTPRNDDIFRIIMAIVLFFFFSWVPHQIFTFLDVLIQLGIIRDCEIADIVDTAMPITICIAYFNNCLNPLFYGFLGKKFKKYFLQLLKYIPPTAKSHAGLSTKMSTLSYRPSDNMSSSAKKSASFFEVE
T1 sequence (P25095 whole entry): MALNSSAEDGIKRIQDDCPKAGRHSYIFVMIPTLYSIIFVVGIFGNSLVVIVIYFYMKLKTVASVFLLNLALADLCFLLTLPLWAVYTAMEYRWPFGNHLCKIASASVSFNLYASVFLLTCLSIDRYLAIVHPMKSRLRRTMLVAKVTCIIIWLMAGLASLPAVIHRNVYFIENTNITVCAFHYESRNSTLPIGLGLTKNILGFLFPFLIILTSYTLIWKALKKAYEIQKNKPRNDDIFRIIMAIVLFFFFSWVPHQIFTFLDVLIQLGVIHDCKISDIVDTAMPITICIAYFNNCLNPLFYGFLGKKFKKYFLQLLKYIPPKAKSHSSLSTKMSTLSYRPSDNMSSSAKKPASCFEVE
Assay: Binding affinity for angiotensin II receptor type 1 using [125I]- Ang II in rat liver membranes
Assay type: cell membranes, Membrane

Row | Ki | SMILES
1 | > 10 µM | CC(C)[C@H](NC(=O)[C@H](C)NC(=O)[C@@H](N)CC(=O)O)C(=O)Nc1ccc2c(c1)CN(CC(=O)N[C@@H](Cc1c[nH]cn1)C(=O)N1CCC[C@H]1C(=O)N[C@@H](Cc1ccccc1)C(=O)O)C(=O)[C@H](Cc1ccc(O)cc1)N2
2 | > 10 µM | CC(C)[C@H](NC(=O)[C@H](CCCN=C(N)N)NC(=O)[C@@H](N)CC(=O)O)C(=O)N[C@@H](Cc1ccc(O)cc1)C(=O)Nc1ccc2c(c1)CN(CC(=O)N[C@@H](Cc1ccccc1)C(=O)O)C(=O)[C@H](Cc1c[nH]cn1)N2
3 | 0.044 µM | N=C(N)NCCC[C@H](NC(=O)[C@@H](N)CC(=O)O)C(=O)N[C@H]1CSCSC[C@@H](C(=O)N[C@@H](Cc2cnc[nH]2)C(=O)N2CCC[C@H]2C(=O)N[C@@H](Cc2ccccc2)C(=O)O)NC(=O)[C@H](Cc2ccc(O)cc2)NC1=O (H-DRCYCHPF-OH; linker 3-5 via CH2)
4 | > 10 µM | CC[C@H](C)[C@H](NC(=O)[C@H](Cc1ccc(O)cc1)NC(=O)[C@@H](NC(=O)[C@H](CCCN=C(N)N)NC(=O)[C@@H](N)CC(=O)O)C(C)C)C(=O)N[C@@H](Cc1ccc(N)cc1)C(=O)N1CCC[C@H]1C(=O)N[C@@H](Cc1ccccc1)C(=O)O (H-DRVYI[Phe(4-NH2)]PF-OH)
5 | > 10 µM | CC[C@@H](C)[C@@H](C(=O)N[C@@H](Cc1c[nH]cn1)C(=O)N1CCC[C@H]1C(=O)N[C@@H](Cc1ccccc1)C(=O)O)N1Cc2cc(NC(=O)[C@H](CCCN=C(N)N)NC(=O)[C@@H](N)CC(=O)O)ccc2[C@@H](Cc2ccc(O)cc2)C1=O (single isomer, unassigned; diastereomer a)

From ChEMBL document CHEMBL1148411 (J Med Chem, 2004)
